Measured values: ChEMBL document CHEMBL1146583, “Acetylenic acids inhibiting azole-resistant Candida albicans from Pentagonia gigantifolia” (J Nat Prod, 2003)
Converted amounts (≈) assume the structure as drawn. The source made the active and inactive calls. The calls are words filed in the database; no cut-off is given here.

Experiments:
Candida albicans [1] = assay: Antifungal activity against Candida albicans ATCC 90028 after 24 to 48 hrs by NCCLS method; assay type: functional, organism-based
Candida albicans [2] = assay: Antifungal activity against Candida albicans ATCC 90028 by sphingolipid reversal assay in presence of 5 ug/mL stearylamine; assay type: functional, organism-based
Candida albicans [3] = assay: Antifungal activity against Candida albicans ATCC 90028 by sphingolipid reversal assay in presence of 15 ug/mL stearylamine; assay type: functional, organism-based
Candida albicans [4] = assay: Antifungal activity against Candida albicans ATCC 90028 by sphingolipid reversal assay in presence of 30 ug/mL stearylamine; assay type: functional, organism-based
KB = assay: Cytotoxicity against human KB cells at 10 ug/mL; assay type: functional, cell-based
SK-MEL = assay: Cytotoxicity against human SK-MEL cells at 10 ug/mL; assay type: functional, cell-based
BT-549 = assay: Cytotoxicity against human BT549 cells at 10 ug/mL; assay type: functional, cell-based
SK-OV-3 = assay: Cytotoxicity against human SKOV3 cells at 10 ug/mL; assay type: functional, cell-based
Vero = assay: Cytotoxicity against african green monkey Vero cells at 10 ug/mL; assay type: cell-based; settings: chlorocebus sabaeus
Candida albicans [5] = assay: Antifungal activity against fluconazole-susceptible Candida albicans isolate 1 after 24 to 48 hrs by NCCLS method; assay type: functional, organism-based; settings: for IC50 / IC80: Candida albicans
Candida albicans [6] = assay: Antifungal activity against fluconazole-resistant Candida albicans isolate 2 after 24 to 48 hrs by NCCLS method; assay type: functional, organism-based; settings: for IC50 / IC80: Candida albicans
Candida albicans [7] = assay: Antifungal activity against fluconazole-resistant Candida albicans isolate 5 after 24 to 48 hrs by NCCLS method; assay type: functional, organism-based; settings: for IC50 / IC80: Candida albicans
Candida albicans [8] = assay: Antifungal activity against fluconazole-resistant Candida albicans isolate 8 after 24 to 48 hrs by NCCLS method; assay type: functional, organism-based; settings: for IC50 / IC80: Candida albicans
Candida albicans [9] = assay: Antifungal activity against fluconazole-resistant Candida albicans isolate 17 after 24 to 48 hrs by NCCLS method; assay type: functional, organism-based; settings: for IC50 / IC80: Candida albicans
Candida albicans [10] = assay: Antifungal activity against Candida albicans ATCC 90028 by sphingolipid reversal assay in presence of 1.25 ug/mL dihydrosphingosine; assay type: functional, organism-based
Candida albicans [11] = assay: Antifungal activity against Candida albicans ATCC 90028 by sphingolipid reversal assay in presence of 2.5 ug/mL dihydrosphingosine; assay type: functional, organism-based
Candida albicans [12] = assay: Antifungal activity against Candida albicans ATCC 90028 by sphingolipid reversal assay in presence of 5.0 ug/mL dihydrosphingosine; assay type: functional, organism-based
Candida albicans [13] = assay: Antifungal activity against fluconazole-resistant Candida albicans isolate 17 at 100 ug/mL after 24 to 48 hrs by NCCLS method; assay type: functional, organism-based

Row | Compound | IC50 (Candida albicans [1]) [µg/mL] | MIC (Candida albicans [1]) [µg/mL] | IC50 (Candida albicans [2]) [µg/mL] | IC50 (Candida albicans [3]) [µg/mL] | IC50 (Candida albicans [4]) [µg/mL] | Fungicidal (Candida albicans [5]) [µg/mL] | IC80 (Candida albicans [5]) [µg/mL] | Fungicidal (Candida albicans [6]) [µg/mL] | IC50 (Candida albicans [6]) [µg/mL] | IC80 (Candida albicans [6]) [µg/mL] | Fungicidal (Candida albicans [7]) [µg/mL] | IC50 (Candida albicans [7]) [µg/mL] | IC80 (Candida albicans [7]) [µg/mL] | Fungicidal (Candida albicans [8]) [µg/mL] | IC50 (Candida albicans [8]) [µg/mL] | IC80 (Candida albicans [8]) [µg/mL] | IC50 (Candida albicans [9]) [µg/mL] | IC50 (Candida albicans [10]) [µg/mL] | IC50 (Candida albicans [11]) [µg/mL] | IC50 (Candida albicans [12]) [µg/mL] | other results
1 | CCCCCCCCCCCC#CCCCCC(=O)OC | – | – | – | – | – | – | – | – | – | – | – | – | – | – | – | – | – | – | – | – | Activity (Candida albicans [1]): inactive
2 | CCCCCCCCCCCCC#CCCCCC(=O)OC | – | – | – | – | – | – | – | – | – | – | – | – | – | – | – | – | – | – | – | – | Activity (Candida albicans [1]): inactive
3 | CCCCCCCCCCCCC#CCCCCC(=O)O [6-NONADECYNOIC ACID] | 0.33 (≈ 1.12 µM) | 0.52 (≈ 1.77 µM) | 5 | 15 | 35 | 0.45 | 0.35 (≈ 1.19 µM) | 0.35 | 0.25 (≈ 0.849 µM) | 0.3 (≈ 1.02 µM) | 0.8 | 0.45 (≈ 1.53 µM) | 0.6 (≈ 2.04 µM) | 0.8 | 0.5 (≈ 1.7 µM) | 0.65 (≈ 2.21 µM) | 0.45 (≈ 1.53 µM) | 1 | 2 | 4.5 | Activity (KB): inactive; Activity (SK-MEL): inactive; Activity (BT-549): inactive; Activity (SK-OV-3): inactive; Activity (Vero): Not Active; IC50 (Candida albicans [5]): 0.25 µg/mL (≈ 0.849 µM); Fungicidal (Candida albicans [9]): 0.7 µg/mL; IC80 (Candida albicans [9]): 0.6 µg/mL (≈ 2.04 µM)
4 | CCCCCCCCCCCC#CCCCCC(=O)O [6-OCTADECYNOIC ACID] | 0.38 (≈ 1.35 µM) | 1.04 (≈ 3.71 µM) | 3.5 | 15 | 30 | 0.7 | 0.6 (≈ 2.14 µM) | 0.75 | 0.5 (≈ 1.78 µM) | 0.65 (≈ 2.32 µM) | 2 | 0.7 (≈ 2.5 µM) | 1 (≈ 3.57 µM) | 1.5 | 0.9 (≈ 3.21 µM) | 1 (≈ 3.57 µM) | 0.65 (≈ 2.32 µM) | 0.7 | 2 | 4.5 | Activity (KB): inactive; Activity (SK-MEL): inactive; Activity (BT-549): inactive; Activity (SK-OV-3): inactive; Activity (Vero): Not Active; IC50 (Candida albicans [5]): 0.45 µg/mL (≈ 1.6 µM); Fungicidal (Candida albicans [9]): 1.5 µg/mL; IC80 (Candida albicans [9]): 1 µg/mL (≈ 3.57 µM)
5 | C[C@@H]1[C@H](O)[C@@H](C)/C=C/C=C/C=C/C=C/C=C/C=C/C=C/[C@H](O[C@@H]2O[C@H](C)[C@@H](O)[C@H](N)[C@@H]2O)C[C@@H]2O[C@](O)(C[C@@H](O)C[C@@H](O)[C@H](O)CC[C@@H](O)C[C@@H](O)CC(=O)O[C@H]1C)C[C@H](O)[C@H]2C(=O)O [AMPHOTERICIN B] | 0.23 (≈ 0.249 µM) | 0.52 (≈ 0.563 µM) | – | 0.4 | 0.65 | – | – | – | – | – | – | – | – | – | – | – | – | – | – | – | –
6 | OC(Cn1cncn1)(Cn1cncn1)c1ccc(F)cc1F [FLUCONAZOLE] | – | 0.29 (≈ 0.947 µM) | 0.65 | 0.8 | 0.75 | 2 | 0.2 (≈ 0.653 µM) | 10 | 1 (≈ 3.27 µM) | 5 (≈ 16.3 µM) | 10 | 7.5 (≈ 24.5 µM) | 10 (≈ 32.7 µM) | 25 | 15 (≈ 49 µM) | 20 (≈ 65.3 µM) | 40 (≈ 131 µM) | 0.3 | 0.5 | 0.7 | IC80 (Candida albicans [9]): 95 µg/mL (≈ 310 µM); Activity (Candida albicans [13]): inactive
7 | Nc1nc(=O)[nH]cc1F [FLUCYTOSINE] | 0.47 (≈ 3.64 µM) | 1.04 (≈ 8.06 µM) | 0.25 | 0.2 | 0.25 | – | – | – | – | – | – | – | – | – | – | – | – | 0.2 | 0.15 | 0.1 | –
